Data: the supplement of paper PMC9938120

Tests used:
Assay in all cases: drug sensitivity score (DSS3, normalised partial AUC of % inhibition dose-response) (DSS (score)); higher = more sensitive (stronger inhibition of viability); extreme values may be limits of the assay
FMOC02_1 = patient-derived low-grade serous ovarian cancer cells; conditions: 72 h; library: FO5A; assay format: 2D, 384-well, CellTiter-Glo
Outline: (§1)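 Cells were dispensed onto 384-well flat clear-bottom plates already holding compounds at five concentrations over a 10,000-fold range, using patient-derived ovarian cancer cells at passage under 10. Incubation lasted 72 h at 37 °C in 5% CO2, after which CellTiter-Glo viability data were processed in Breeze. Higher drug sensitivity scores, each a partial area under the percent-inhibition dose-response curve divided by the log of the upper asymptote, mean more sensitive cells.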

FMOC02_2 = patient-derived low-grade serous ovarian cancer cells; conditions: 72 h; library: FO5A; assay format: 2D, 384-well, CellTiter-Glo
Outline: as §1

FMOC02_3 = patient-derived low-grade serous ovarian cancer cells; conditions: 72 h; library: FO5A; assay format: 2D, 384-well, CellTiter-Glo
Outline: as §1

FMOC03 = patient-derived mucinous ovarian cancer cells; conditions: 72 h; library: FO5A; assay format: 2D, 384-well, CellTiter-Glo
Outline: as §1

FMOC04 = patient-derived high-grade serous ovarian cancer cells; conditions: 72 h; library: FO5A; assay format: 2D, 384-well, CellTiter-Glo
Outline: as §1

FMOC06 = patient-derived mucinous ovarian cancer cells; conditions: 72 h; library: FO5A; assay format: 2D, 384-well, CellTiter-Glo
Outline: as §1

FMOC09 = patient-derived high-grade serous ovarian cancer cells; conditions: 72 h; library: FO5A; assay format: 2D, 384-well, CellTiter-Glo
Outline: as §1

FMOC11 = patient-derived high-grade serous ovarian cancer cells; conditions: 72 h; library: FO5A; assay format: 2D, 384-well, CellTiter-Glo
Outline: as §1

FMOC14 = patient-derived high-grade serous ovarian cancer cells; conditions: 72 h; library: FO5A; assay format: 2D, 384-well, CellTiter-Glo
Outline: as §1

FMOC17 = patient-derived low-grade serous ovarian cancer cells; conditions: 72 h; library: FO5A; assay format: 2D, 384-well, CellTiter-Glo
Outline: as §1

FMOC22 = patient-derived mucinous ovarian cancer cells; conditions: 72 h; library: FO5A; assay format: 2D, 384-well, CellTiter-Glo
Outline: as §1

FMOC24 = patient-derived high-grade serous ovarian cancer cells; conditions: 72 h; library: FO5A; assay format: 2D, 384-well, CellTiter-Glo
Outline: as §1

FMOC25_1 = patient-derived low-grade serous ovarian cancer cells; conditions: 72 h; library: FO4B; assay format: 2D, 384-well, CellTiter-Glo
Outline: as §1

FMOC25_2 = patient-derived low-grade serous ovarian cancer cells; conditions: 72 h; library: FO5A; assay format: 2D, 384-well, CellTiter-Glo
Outline: as §1

FMOC27 = patient-derived low-grade serous ovarian cancer cells; conditions: 72 h; library: FO5A; assay format: 2D, 384-well, CellTiter-Glo
Outline: as §1

FMOC28 = patient-derived low-grade serous ovarian cancer cells; conditions: 72 h; library: FO5A; assay format: 2D, 384-well, CellTiter-Glo
Outline: as §1

Compound | drug sensitivity score (FMOC02_1) | drug sensitivity score (FMOC02_2) | drug sensitivity score (FMOC02_3) | drug sensitivity score (FMOC03) | drug sensitivity score (FMOC04) | drug sensitivity score (FMOC06) | drug sensitivity score (FMOC09) | drug sensitivity score (FMOC11) | drug sensitivity score (FMOC14) | drug sensitivity score (FMOC17) | drug sensitivity score (FMOC22) | drug sensitivity score (FMOC24) | drug sensitivity score (FMOC25_1) | drug sensitivity score (FMOC25_2) | drug sensitivity score (FMOC27) | drug sensitivity score (FMOC28)
CC1CCC(n2c3cnccc3c3cnc(Nc4ccc5c(n4)CCN(C(=O)CO)C5)nc32)CC1 (centres undefined) [AMG-925] | 0 | 0 | 1.3 | 0 | 0 | 0 | 0 | 0 | 0 | 0 | 0.2 | 0 | 0.7 | 0.5 | 0.9 | 0
COCC1(CO)C(=O)C2CCN1CC2 (centres undefined) [APR-246] | 0 | 0 | 0 | 0 | 0 | 0 | 0 | 0 | 0 | 0 | 0 | 0.05 | 0 | 0 | 0 | 0
COc1cc(N2CCN(C)CC2)ccc1Nc1nccc(-c2cn(C)c3cnccc23)n1 [AZ191] | 4 | 3.8 | 2.9 | 0.5 | 0.2 | 1.9 | 2.2 | 1.4 | 0.4 | 1.7 | 0.7 | 6.15 | 0 | 1.5 | 1.6 | 2.3
COc1cc(OC2CCN(C)CC2)ccc1Nc1ncc2c(n1)n(C1CCCC1)c(=O)n2C [AZ 3146] | 5.2 | 5.2 | 9 | 0.7 | 1.3 | 2.9 | 1.1 | 1.3 | 0.9 | 4.7 | 0.8 | 6.25 | 3.7 | 6 | 4.4 | 2.3
N[C@@H]1CCCN(c2c(/C=C3\SC(=O)NC3=O)cccc2-c2ccccc2)C1 [AZD1208] | 1 | 0 | 5.9 | 0 | 0 | 4.7 | 3.2 | 0 | 0 | 0 | 0 | 0 | 0.5 | 2.4 | 0 | 0
Cc1cc(Nc2nc(N[C@@H](C)c3ncc(F)cn3)ncc2Cl)[nH]n1 [AZD1480] | 0.8 | 0.8 | 1.6 | 0 | 0 | 0 | 0 | 0 | 0 | 0.1 | 0 | 0 | 0 | 0.3 | 0 | 0
COc1cc(CCc2cc(NC(=O)c3ccc(N4CC(C)NC(C)C4)cc3)n[nH]2)cc(OC)c1 (centres undefined) [AZD4547] | 0 | 0 | 0 | 0 | 0 | 0 | 0 | 0 | 0 | 0 | 0 | 0 | 0 | 0 | 0 | 0
CN(C)C(=O)c1ccc(S(=O)(=O)c2ccc(NC(=O)[C@@](C)(O)C(F)(F)F)c(Cl)c2)cc1 [AZD7545] | 0 | 0 | 0 | 0 | 0 | 0 | 0 | 0 | 0.4 | 0 | 0.8 | 0 | 0 | 0 | 0 | 2.4
N#Cc1ccc2[nH]c(O)c(-c3ccc(CN4CCOCC4)cn3)c2c1 [AZD-1080] | 1.4 | 0 | 5.1 | 0 | 0.15 | 0 | 0 | 0 | 0 | 0.4 | 0 | 1.15 | 0 | 5.3 | 0 | 0
Cc1cc([C@@H](C)Nc2ccccc2C(=O)O)c2nc(N3CCOCC3)cc(=O)n2c1 [AZD-6482] | 0 | 0.6 | 2.3 | 0.5 | 0 | 0 | 0.1 | 0.9 | 0.4 | 2.8 | 0 | 0.5 | 2.5 | 0.8 | 0 | 0
C[C@@H](Nc1cc(F)cc(F)c1)c1cc(C(=O)N(C)C)cc2c(=O)cc(N3CCOCC3)oc12 [AZD-8186] | 1.5 | 2.6 | 3.3 | 1.6 | 0.75 | 3 | 2.4 | 1.8 | 0 | 4.9 | 0 | 0 | 1.5 | 2.1 | 5.3 | 1.6
CCN1CCN(Cc2ccc(Nc3ncc(F)c(-c4cc(F)c5nc(C)n(C(C)C)c5c4)n3)nc2)CC1 [Abemaciclib] | 7 | 6.6 | 11.6 | 2.3 | 0.35 | 4 | 2.1 | 0.8 | 0.1 | 3.4 | 0 | 1.7 | 0.1 | 7.5 | 3.2 | 0
C[C@]12CC[C@H](O)CC1=CC[C@@H]1[C@@H]2CC[C@]2(C)C(c3cccnc3)=CC[C@@H]12 [Abiraterone] | 0 | 1.3 | 0 | 0 | 0.05 | 0.1 | 0 | 0 | 2.3 | 0 | 0 | 4.9 | 0.3 | 0.6 | 0 | 0.6
Cn1ncc(Cl)c1-c1cc(C(=O)N[C@H](CN)Cc2cccc(F)c2)sc1Cl [Afuresertib] | 4.7 | 6.6 | 4.4 | 0 | 1.65 | 2.9 | 1 | 0.2 | 3.2 | 3 | 0 | 1.3 | 2.9 | 4.3 | 5.4 | 3.8
CCc1cc2c(cc1N1CCC(N3CCOCC3)CC1)C(C)(C)c1[nH]c3cc(C#N)ccc3c1C2=O [Alectinib] | 1.7 | 1.5 | 0.6 | 0.3 | 0 | 0.2 | 0 | 0.7 | 0 | 0.8 | 0 | 0.3 | 0.1 | 0 | 1.2 | 1.7
Oc1ncnc2[nH]ncc12 [Allopurinol] | 0 | 0 | 0 | 0 | 0 | 0 | 0 | 0 | 0 | 0 | 0 | 0 | 1.3 | 0 | 0 | 0
Cc1nc(NC(=O)N2CCC[C@H]2C(N)=O)sc1-c1ccnc(C(C)(C)C(F)(F)F)c1 [Alpelisib] | 5.3 | 5.7 | 6.5 | 2.3 | 0.9 | 4.1 | 4.3 | 1.4 | 0 | 1.9 | 0.7 | 0.35 | 4.7 | 4.8 | 0.2 | 5.9
CCC1(c2ccc(N)cc2)CCC(=O)NC1=O (centres undefined) [Aminoglutethimide] | 0 | 0.1 | 0.6 | 0 | 0 | 0 | 0 | 0 | 0 | 0.1 | 0 | 1.05 | 0.4 | 0 | 0 | 0
S=C(NCc1ccc2c(c1)OCO2)N1CCN(c2ncnc3c2oc2ccccc23)CC1 [Amuvatinib] | 0.4 | 0 | 0 | 2.6 | 0.3 | 0.8 | 0 | 0.7 | 2 | 0.3 | 2.2 | 0 | 0 | 0 | 0 | 0
CC(C)(C#N)c1cc(Cn2cncn2)cc(C(C)(C)C#N)c1 [Anastrozole] | 0 | 0 | 0 | 0 | 0 | 0 | 0 | 0 | 0 | 0 | 0 | 0 | 0 | 0 | 0 | 0
N#CC1(c2ccc(NC(=O)c3cccnc3NCc3ccncc3)cc2)CCCC1 [Apatinib] | 0.3 | 1.1 | 1.5 | 0 | 0.6 | 0 | 0 | 0 | 0 | 0 | 0 | 0.1 | 2.3 | 1.5 | 0 | 4.5
CC(C)c1c(C(=O)Nc2ccccc2)c(-c2ccccc2)c(-c2ccc(F)cc2)n1CC[C@@H](O)C[C@@H](O)CC(=O)O [Atorvastatin] | 1 | 1.9 | 1.5 | 2.9 | 0.65 | 1.6 | 4.9 | 3.1 | 3.2 | 2.9 | 4.5 | 6.75 | 0.6 | 3.2 | 0 | 5.3
CNC(=O)c1ccccc1Sc1ccc2c(/C=C/c3ccccn3)n[nH]c2c1 [Axitinib] | 1.9 | 0.5 | 0.1 | 2.1 | 0.45 | 0 | 0 | 0.1 | 0 | 0.3 | 1.2 | 2.15 | 0 | 0 | 0 | 0
Nc1nc(Nc2ccc3c(c2)CC[C@@H](N2CCCC2)CC3)nn1-c1cc2c(nn1)-c1ccccc1CCC2 [BGB324] | 7.2 | 5 | 7.6 | 2.4 | 5.35 | 3.7 | 0.9 | 4.4 | 6.2 | 3.8 | 1.7 | 7.9 | 5.1 | 2.7 | 0.3 | 0.8
